A short description of series [1]: Serum levels PO in squirrel monkeys (AUCs, 0-6h.), cylinder cup method. The note with it: for AUC at 6 h: monkey, po. The class given is in vivo. As for the experimental part: The serum levels of the compounds of this invention were determined in male mice (Carworth CF-1) weighing 18-20 g. each, and squirrel monkeys weighing ca. 1 kg. each. Groups of six mice were given aqueous solutions of the drugs intravenously as single bolus doses of 100 mg./kg., and groups of six monkeys were given the drugs orally as a single dose of 20, or 50 mg./kg. After 1, 3, 5, 10, 20, 30, 45, 60, 90, 120 and 180 min., mice were killed by cutting the jugular vein and the blood allowed to drain into 8 mm. (diameter) tubes which had been standing in a ice water bath. At each time point, blood from the group of mice was pooled. For monkeys, blood samples were taken after 15, 30, 45, 60, 90, 120, 180, 240 and 360 minutes and were not pooled. The samples were left to clot at room temperature for 15 min. After clotting, the samples were centrifuged for 10 min. […] Stock solutions of each antibacterial were prepared daily in the appropriate vehicle and diluted in homologous serum to prepare a standard curve. Serum samples, diluted where necessary in the appropriate serum, were compared to a standard curve of known potency by standard assay procedures. All assays were done at least twice.
(§1) AUCs (areas under the curves) were obtained from serum level vs. time data by the trapezoidal rule.

Series [2] in a line: Serum levels IV in mice (AUCs, 0-3h.), cylinder cup method. The note with it: for AUC at 3 h: mouse, in vivo, intravenous single bolus 100 mg./kg.; for AUC at 3 h / serum levels compared with erythromycin, rosaramicin, tylosin, 3-O-acetyl-4"-O-iso-valeryltylosin, 3-O-acetyl-23-O-demycinosyl-4"-O-iso-valeryltylosin, intravenously to mice: 10 mg./ml. in vehicle; for serum levels compared with erythromycin, rosaramicin, tylosin, 3-O-acetyl-4"-O-iso-valeryltylosin, 3-O-acetyl-23-O-demycinosyl-4"-O-iso-valeryltylosin, intravenously to mice: 100 mg./kg. The class given is in vivo, male mice (Carworth CF-1). Here is the method: The serum levels of the compounds of this invention were determined in male mice (Carworth CF-1) weighing 18-20 g. each, and squirrel monkeys weighing ca. 1 kg. each. Groups of six mice were given aqueous solutions of the drugs intravenously as single bolus doses of 100 mg./kg., and groups of six monkeys were given the drugs orally as a single dose of 20, or 50 mg./kg. After 1, 3, 5, 10, 20, 30, 45, 60, 90, 120 and 180 min., mice were killed by cutting the jugular vein and the blood allowed to drain into 8 mm. (diameter) tubes which had been standing in a ice water bath. At each time point, blood from the group of mice was pooled. For monkeys, blood samples were taken after 15, 30, 45, 60, 90, 120, 180, 240 and 360 minutes and were not pooled. The samples were left to clot at room temperature for 15 min. After clotting, the samples were centrifuged for 10 min. Serum was removed and put into another test tube in an ice water bath, until antibiotic levels were determined by a cylinder cup method, with either Bacillus subtilis ATCC 6633, or Micrococcus luteus ATCC 9431 as the test organisms. Stock solutions of each antibacterial were prepared daily in the appropriate vehicle and diluted in homologous serum to prepare a standard curve. Serum samples, diluted where necessary in the appropriate serum, were compared to a standard curve of known potency by standard assay procedures. All assays were done at least twice.
as §1

The conditions of series [3]: cited from earlier work.
The mark [4] stands for this setting: serum, 20 mg/kg, oral single dose 20 mg./kg., 3.5 mg./ml. in vehicle, crossover experiment.
Setting [5] is: serum, 20 mg/kg, oral single dose 20 mg./kg., 20 mg./ml. in PEG 40 castor oil/lactic acid vehicle.
The mark [6] stands for this setting: in vivo, 20 mg/kg, oral single dose 20 mg./kg., 20 mg./ml. in PEG 40 castor oil/lactic acid vehicle.

Here are results for 13 compounds from US4851518A, “Di and tri-O-acetyl-"O-iso-valeryl-23-O-demycinosyl tylosins, hydrazone derivatives thereof and processes for their preparation” (priority 1985, dated 1989).

`CC[C@H]1OC(=O)C[C@@H](OC(C)=O)[C@H](C)[C@@H](O[C@@H]2O[C@H](C)[C@@H](O[C@H]3C[C@@](C)(O)[C@@H](OC(=O)CC(C)C)[C@H](C)O3)[C@H](N(C)C)[C@H]2O)[C@@H](CC=O)C[C@@H](C)C(=O)/C=C/C(C)=C/[C@@H]1CO[C@@H]1O[C@H](C)[C@@H](O)[C@@H](OC)[C@H]1OC` [IV, 3-O-Acetyl-4"-O-iso-valeryltylosin, reference compound]: the AUC at 6 h is 7600 ng·h/mL in series [1] (setting [4]) and 15800 ng·h/mL in series [1] (setting [5]). Moreover, the area under the curve (AUC) at 3 h in series [2] was found to be 52400 ng·h/mL.

For the compound `CC[C@H]1OC(=O)C[C@@H](O)[C@H](C)[C@@H](O[C@@H]2O[C@H](C)[C@@H](O[C@H]3C[C@@](C)(O)[C@@H](O)[C@H](C)O3)[C@H](N(C)C)[C@H]2O)[C@@H](CC=O)C[C@@H](C)C(=O)/C=C/C(C)=C/[C@@H]1CO[C@@H]1O[C@H](C)[C@@H](O)[C@@H](OC)[C@H]1OC` [III, Tylosin], the AUC at 6 h came to 2600 ng·h/mL in series [1] (setting [6]) and 15600 ng·h/mL in series [1] (in vivo, 50 mg/kg, oral single dose 50 mg./kg., 50 mg./ml. in vehicle). In addition, the “stability in acidic and basic solution” value in series [3] was “readily transformed in acidic and basic solution into aldol condensation and Michael addition products”. The compound further had an AUC at 3 h in series [2] of 24200 ng·h/mL.

With `CC[C@H]1OC(=O)C[C@@H](O)[C@H](C)[C@@H](O[C@@H]2O[C@H](C)C[C@H](N(C)C)[C@H]2O)[C@@H](CC=O)C[C@@H](C)C(=O)/C=C/[C@]2(C)O[C@H]2[C@@H]1C` [II, Rosaramicin, reference compound], the AUC at 6 h in series [1] (setting [5]) came to 2200 ng·h/mL; in series [1] (serum, 50 mg/kg, oral single dose 50 mg./kg., 50 mg./ml. in vehicle), 6600 ng·h/mL.

`CC[C@H]1OC(=O)C[C@@H](OC(C)=O)[C@H](C)[C@@H](O[C@@H]2O[C@H](C)[C@@H](O[C@H]3C[C@@](C)(O)[C@@H](OC(=O)CC(C)C)[C@H](C)O3)[C@H](N(C)C)[C@H]2OC(C)=O)[C@@H](CC=NN2CCS(=O)(=O)CC2)C[C@@H](C)C(=O)/C=C/C(C)=C/[C@@H]1CO` [X, 3,2'-Di-O-acetyl-23-O-demycinosyl-20deoxo-20-[(4,4-dioxothiomorpholinyl)imino]-4"-O-iso-valeryltylosin] gave an exposure (AUC) at 6 h in series [1] (setting [5]) of 4800 ng·h/mL. Also, the area under the curve (AUC) at 3 h in series [2] was determined as 80500 ng·h/mL.

Regarding `CC[C@H]1OC(=O)C[C@@H](OC(C)=O)[C@H](C)[C@@H](O[C@@H]2O[C@H](C)[C@@H](O[C@H]3C[C@@](C)(O)[C@@H](OC(=O)CC(C)C)[C@H](C)O3)[C@H](N(C)C)[C@H]2O)[C@@H](CC=NN2CCS(=O)(=O)CC2)C[C@@H](C)C(=O)/C=C/C(C)=C/[C@@H]1CO[C@@H]1O[C@H](C)[C@@H](O)[C@@H](OC)[C@H]1OC` [VIII, 3-O-Acetyl-20-deoxo-20-[(4,4-dioxothiomorpholinyl)imino]-4"-O-iso-valeryltylosin], in series [1] (setting [5]), the AUC at 6 h amounted to 7500 ng·h/mL. This compound also yielded an area under the curve (AUC) at 3 h in series [2] of 67600 ng·h/mL.

In series [1] (setting [5]), `CC[C@H]1OC(=O)C[C@@H](OC(C)=O)[C@H](C)[C@@H](O[C@@H]2O[C@H](C)[C@@H](O[C@H]3C[C@@](C)(O)[C@@H](OC(=O)CC(C)C)[C@H](C)O3)[C@H](N(C)C)[C@H]2O)[C@@H](CC=NN2CCS(=O)(=O)CC2)C[C@@H](C)C(=O)/C=C/C(C)=C/[C@@H]1COC(C)=O` [XI, 3,23-Di-O-acetyl-23-O-demycinosyl-20-deoxo-20-[(4,4-dioxothiomorpholinyl)imino]-4"-O-iso-valeryltylosin] registered an exposure (AUC) at 6 h of 4600 ng·h/mL. The AUC at 3 h in series [2] was 61800 ng·h/mL.

In turn, `CC[C@H]1OC(=O)C[C@@H](OC(C)=O)[C@H](C)[C@@H](O[C@@H]2O[C@H](C)[C@@H](O[C@H]3C[C@@](C)(O)[C@@H](OC(=O)CC(C)C)[C@H](C)O3)[C@H](N(C)C)[C@H]2O)[C@@H](CC=O)C[C@@H](C)C(=O)/C=C/C(C)=C/[C@@H]1CO` [V, 3-O-Acetyl-23-O-demycinosyl-4"-O-isovaleryltylosin, reference compound] displayed an AUC at 6 h in series [1] (setting [5]) of 5500 ng·h/mL. The compound further yielded an area under the curve (AUC) at 3 h in series [2] of 28300 ng·h/mL.

In series [2], `CC[C@H]1OC(=O)C[C@@H](OC(C)=O)[C@H](C)[C@@H](O[C@@H]2O[C@H](C)[C@@H](O[C@H]3C[C@@](C)(O)[C@@H](OC(=O)CC(C)C)[C@H](C)O3)[C@H](N(C)C)[C@H]2O)[C@@H](CC=NN2CCS(=O)(=O)CC2)C[C@@H](C)C(=O)/C=C/C(C)=C/[C@@H]1COC(=O)Cc1ccccc1` [XIII, 3-O-Acetyl-23-O-demycinosyl-20-deoxo-20-[(4,4-dioxothiomorpholinyl)imino]-23-O-phenylacetyl-4"-O-iso-valeryltylosin] gave an exposure (AUC) at 3 h of 43400 ng·h/mL.

In series [1] (serum, 20 mg/kg, oral single dose 20 mg./kg., 3.5 mg./ml. in vehicle), `CC[C@H]1OC(=O)C[C@@H](OC(C)=O)[C@H](C)[C@@H](O[C@@H]2O[C@H](C)[C@@H](O[C@H]3C[C@@](C)(O)[C@@H](OC(=O)CC(C)C)[C@H](C)O3)[C@H](N(C)C)[C@H]2OC(C)=O)[C@@H](CC=NN2CCS(=O)(=O)CC2)C[C@@H](C)C(=O)/C=C/C(C)=C/[C@@H]1COC(C)=O` [XII, 3,23,2'-Tri-O-acetyl-23-O-demycinosyl-20-deoxo-20-[(4,4-dioxothiomorpholinyl)imino]-4"-O-iso-valeryltylosin] registered an AUC at 6 h of 3800 ng·h/mL. Besides, in series [2], the “serum levels compared with erythromycin, rosaramicin, tylosin, 3-O-acetyl-4"-O-iso-valeryltylosin, 3-O-acetyl-23-O-demycinosyl-4"-O-iso-valeryltylosin, intravenously to mice” value is on record as “serum levels that are superior” and the AUC at 3 h was 154000 ng·h/mL.

Consider `CC[C@H]1OC(=O)C[C@@H](OC(C)=O)[C@H](C)[C@@H](O[C@@H]2O[C@H](C)[C@@H](O[C@H]3C[C@@](C)(O)[C@@H](OC(=O)CC(C)C)[C@H](C)O3)[C@H](N(C)C)[C@H]2OC(C)=O)[C@@H](CC=O)C[C@@H](C)C(=O)/C=C/C(C)=C/[C@@H]1COC(C)=O` [VII, 3,23,2'-Tri-O-acetyl-23-O-demycinosyl-4"-O-iso-valeryltylosin], for which the “serum levels compared with 3-O-acetyl-4"-O-iso-valeryltylosin, orally to squirrel monkeys” value in series [1] (20 mg./kg., 3.5 mg./ml. in vehicle) is “superior serum levels”. Further, in series [1] (setting [4]), the AUC at 6 h stood at 13500 ng·h/mL. Besides, the “serum levels compared with 3-O-acetyl-4"-O-iso-valeryltylosin, orally to squirrel monkeys” value in series [1] (oral, dose not given) is listed as “superior serum levels”. In addition, in series [2], the “serum levels compared with erythromycin, rosaramicin, tylosin, 3-O-acetyl-4"-O-iso-valeryltylosin, 3-O-acetyl-23-O-demycinosyl-4"-O-iso-valeryltylosin, intravenously to mice” value was “serum levels that are superior” and the exposure (AUC) at 3 h turned out to be 69400 ng·h/mL. In addition, the “serum levels compared with erythromycin, rosaramicin, tylosin, 3-O-acetyl-23-O-demycinosyl-4"-O-iso-valeryltylosin, 3-O-acetyl-4"-O-iso-valeryltylosin, intravenously to mice” value in series [2] (intravenous, dose not given) was “higher serum levels”.

On to `CC[C@H]1OC(=O)[C@H](C)[C@@H](O[C@H]2C[C@@](C)(OC)[C@@H](O)[C@H](C)O2)[C@H](C)[C@@H](O[C@@H]2O[C@H](C)C[C@H](N(C)C)[C@H]2O)[C@](C)(O)C[C@@H](C)C(=O)[C@H](C)[C@@H](O)[C@]1(C)O` [I, Erythromycin, reference compound], for which the AUC at 6 h in series [1] (in vivo, 20 mg/kg, oral single dose 20 mg./kg., 3.5 mg./ml. in vehicle) came out at 1500 ng·h/mL; in series [1] (in vivo, 20 mg/kg, oral single dose 20 mg./kg., 10 mg./ml. in vehicle) it was 4800 ng·h/mL; in series [1] (setting [6]), 4900 ng·h/mL. Also, the area under the curve (AUC) at 3 h in series [2] came out at 36100 ng·h/mL.

Turning to `CC[C@H]1OC(=O)C[C@@H](OC(C)=O)[C@H](C)[C@@H](O[C@@H]2O[C@H](C)[C@@H](O[C@H]3C[C@@](C)(O)[C@@H](OC(=O)CC(C)C)[C@H](C)O3)[C@H](N(C)C)[C@H]2OC(C)=O)[C@@H](CC=O)C[C@@H](C)C(=O)/C=C/C(C)=C/[C@@H]1CO` [VI, 3,2'-Di-O-acetyl-23-O-demycinosyl-4"-O-iso-valeryltylosin], the “serum levels compared with 3-O-acetyl-4"-O-iso-valeryltylosin, orally to squirrel monkeys” value in series [1] (20 mg./kg., 20 mg./ml. in vehicle) is “slightly lower serum levels”; in series [1] (oral, dose not given) it was “slightly lower serum levels”. Further, the AUC at 6 h in series [1] (setting [5]) stood at 10400 ng·h/mL.

Take `CC[C@H]1OC(=O)C[C@@H](OC(C)=O)[C@H](C)[C@@H](O[C@@H]2O[C@H](C)[C@@H](O[C@H]3C[C@@](C)(O)[C@@H](OC(=O)CC(C)C)[C@H](C)O3)[C@H](N(C)C)[C@H]2O)[C@@H](CC=NN2CCS(=O)(=O)CC2)C[C@@H](C)C(=O)/C=C/C(C)=C/[C@@H]1CO` [IX, 3-O-Acetyl-23-O-demycinosyl-20-deoxo-20-[(4,4-dioxothiomorpholinyl)imino]-4"-O-iso-valeryltylosin]: in series [1] (setting [5]), the area under the curve (AUC) at 6 h came out at 2500 ng·h/mL. Moreover, the exposure (AUC) at 3 h in series [2] stood at 40100 ng·h/mL.
